Assay results reported in patent US20260055097A9, “NRF2 PROTEIN DEGRADERS” (Ganymede Oncology, Inc., priority 2022, published 2026).
Read-outs that look alike come from different tables or passages of the source.

What was measured:
Format in all cases: cell-based
LK-2 = experiment: Cancer cell viability, LK-2 (CellTiter-Glo); settings: Homo sapiens, LK-2, 72 h, LK-2 cells, 3 days, read-out: Cellular IC50 (μM) LK-2
Description: (§1) Representative Compounds of the Disclosure were tested in A549 (Vendor: ATCC; Cat #CCL-185; Description: lung, carcinoma) and/or LK-2 (Vendor: Riken; Cat #RCB1970; Description: lung, squamous cell carcinoma) cellular viability assays according to the following general protocol. • 1. Observed the cells under microscope. • 2. Aspirated the media and added 5 mL trypsin and incubate for 3 mins. • 3. Added 10 mL fresh media and harvested all the cells in to 15 mL tubes. • 4. Centrifuged the cells at 1000 rpm for 5 mins. • 5. Re-suspended the cells with 11 mL media and took 1 mL to determine the cell number and viability. • 6. Prepared cells suspension at 20 K/mL (A549) or 35 K/mL (LK-2) • 7. Seeded the cells into 96-well plate and incubated for overnight. • 8. Added compounds into each well with a HPD300 machine (nine three-fold dilutions typically starting at 30 µM final concentration) and incubated for 3 days. • 9. After 3 days, took out the plates from the incubator and observed the cells under microscope. • 10. Passed a film at the bottom of the plates. • 11. Equilibrated the plate and its contents at room temperature for approximately 30 minutes. • 12. Thawed the CellTiter-Glo® Buffer and equilibrated to room temperature prior to use. • 13. Equilibrated the lyophilized CellTiter-Glo® Substrate to room temperature prior to use. • 14. Transferred 100 ml of CellTiter-Glo® Buffer into the amber bottle containing CellTiter-Glo® Substrate to reconstituted the lyophilized enzyme/substrate mixture. • 15. Mixed by gently vortexing, swirling or inverting the contents to obtain a homogeneous solution. • 16. Added 100 μL CellTiter-Glo® Reagent into each well • 17. Mixed contents for 15 minutes on an orbital shaker to induce cell lysis. • 18. Recorded luminescence with EnSpire machine. • 19. Passed the raw data into the file and analyzed the data with XLfit software.

A549 = experiment: Cancer cell viability, A549 (CellTiter-Glo); settings: Homo sapiens, 72 h, A549 cells, 3 days, read-out: Cellular IC50 (μM) A549
Description: as §1, with “Added compounds into each well with a HPD300 machine (nine three-fold dilutions typically starting at 30 µM final concentration) and incubated for 3 days. • 9.” left out

Nrf2 = target: T1, Nrf2 (Homo sapiens, UniProt Q16236); experiment: Nrf2 degradation in A549 HiBiT-Nrf2 cells, Nano-Glo HiBiT lytic detection (HiBiT readout); design: host or cells: A549 HiBiT-Nrf2 cells (engineered line bought from Promega)
T1 sequence (Q16236 1-605): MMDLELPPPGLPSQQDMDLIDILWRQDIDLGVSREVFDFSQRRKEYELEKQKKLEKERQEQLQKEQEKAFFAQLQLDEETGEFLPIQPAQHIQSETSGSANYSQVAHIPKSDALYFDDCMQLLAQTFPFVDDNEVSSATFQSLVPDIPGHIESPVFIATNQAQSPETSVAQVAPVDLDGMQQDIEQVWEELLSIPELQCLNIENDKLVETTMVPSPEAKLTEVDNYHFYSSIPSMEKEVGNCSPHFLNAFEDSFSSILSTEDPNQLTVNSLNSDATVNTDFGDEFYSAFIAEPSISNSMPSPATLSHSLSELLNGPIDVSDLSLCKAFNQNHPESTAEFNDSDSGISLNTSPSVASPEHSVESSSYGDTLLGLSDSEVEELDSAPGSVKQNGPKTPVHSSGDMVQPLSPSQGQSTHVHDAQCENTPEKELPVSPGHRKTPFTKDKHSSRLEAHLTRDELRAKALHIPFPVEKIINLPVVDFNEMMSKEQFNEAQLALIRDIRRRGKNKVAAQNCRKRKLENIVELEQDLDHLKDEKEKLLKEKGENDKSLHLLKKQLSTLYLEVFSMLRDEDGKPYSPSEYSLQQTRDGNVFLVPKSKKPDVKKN
Description: A549 HiBiT-Nrf2 cells (Promega, Cat. No. CS3023219) were seeded into 384-well plates at cell density of 5,000 cells/well in 40 μL of cell culture medium (Ham's F-12 Nutrient Mix supplemented with 10% FBS and 1% antibiotic-antimycotic).
The next day, cells were treated with representative Compounds of the Disclosure and incubated for 6 h and 20 h at 37° C., 5% CO2. Staurosporine was used as a control.
At the end of incubation Nrf2 degradation (HiBiT readout) and cell viability (CellTiter-Glo readout) were determined. For HiBiT readout, Nano-Glo HiBiT Reagent mix (Promega, Cat. No. N3050) was added to wells, plates were incubated 2 min on an orbital shaker and incubated at room temperature in the dark for additional 30 minutes. At the end of incubation luminescence was measured using ultrasensitive luminescence mode (Envision, Perkin Elmer).

[1] = 20 h, read-out: DC50 (nM) at 20 h
[2] = 6 h, read-out: DC50 (nM) at 6 h

IC50 (LK-2) [µM]	IC50 (A549) [µM]	DC50 (Nrf2; [1]) [nM]	DC50 (Nrf2; [2]) [nM]	SMILES
> 30	> 30	–	–	Cc1ccccc1C(=O)N1CCc2cc(-c3nc(NC(=O)Cc4cccc(OCCCNc5cccc6c5C(=O)N(C5CCC(=O)NC5=O)C6=O)c4)sc3C)ccc21 (centres unmarked) [Cpd. No. 6, 2-(3-(3-((2-(2,6-dioxopiperidin-3-yl)-1,3-dioxoisoindolin-4-yl)amino)propoxy)phenyl)-N-(5-methyl-4-(1-(2-methylbenzoyl)indolin-5-yl)thiazol-2-yl)acetamide]
2.5	11	–	–	Cc1ccccc1C(=O)N1CCc2cc(-c3nc(NC(=O)Cc4cccc(OCCOCCOCCOc5ccc6c(c5)C(=O)N(C5CCC(=O)NC5=O)C6=O)c4)sc3C)ccc21 (centres unmarked) [Cpd. No. 19, 2-(3-(2-(2-(2-((2-(2,6-dioxopiperidin-3-yl)-1,3-dioxoisoindolin-5-yl)oxy)ethoxy)ethoxy)ethoxy)phenyl)-N-(5-methyl-4-(1-(2-methylbenzoyl)indolin-5-yl)thiazol-2-yl)acetamide]
> 30	> 30	–	–	Cc1ccccc1C(=O)N1CCc2cc(-c3nc(NC(=O)Cc4cccc(OCCOCCOCCNc5ccc6c(c5)C(=O)N(C5CCC(=O)NC5=O)C6=O)c4)sc3C)ccc21 (centres unmarked) [Cpd. No. 21, 2-(3-(2-(2-(2-((2-(2,6-dioxopiperidin-3-yl)-1,3-dioxoisoindolin-5-yl)amino)ethoxy)ethoxy)ethoxy)phenyl)-N-(5-methyl-4-(1-(2-methylbenzoyl)indolin-5-yl)thiazol-2-yl)acetamide]
0.06	0.3	–	–	Cc1sc(NC(=O)Cc2cccc(OCCOCCNc3ccc4c(c3)C(=O)N(C3CCC(=O)NC3=O)C4=O)c2)nc1-c1ccc2c(c1)CCN2C(=O)C1CC1 (centres unmarked) [Cpd. No. 22, N-(4-(1-(cyclopropanecarbonyl)indolin-5-yl)-5-methylthiazol-2-yl)-2-(3-(2-(2-((2-(2,6-dioxopiperidin-3-yl)-1,3-dioxoisoindolin-5-yl)amino)ethoxy)ethoxy)phenyl) acetamide]
–	> 30	< 300	–	Cc1sc(NC(=O)Cc2cccc(OCCC3CCN(c4ccc5c(c4)C(=O)N(C4CCC(=O)NC4=O)C5=O)CC3)c2)nc1-c1ccc2c(c1)CCN2C(=O)C1CC1 (centres unmarked) [Cpd. No. 68, N-(4-(1-(cyclopropanecarbonyl)indolin-5-yl)-5-methylthiazol-2-yl)-2-(3-(2-(1-(2-(2,6-dioxopiperidin-3-yl)-1,3-dioxoisoindolin-5-yl)piperidin-4-yl)ethoxy)phenyl)acetamide]
–	0.18	< 300	< 300	Cc1sc(NC(=O)Cc2cccc(OCCCCCNc3cccc4c3CN(C3CCC(=O)NC3=O)C4=O)c2)nc1-c1ccc2c(c1)CCN2C(=O)C1CC1 (centres unmarked) [Cpd. No. 69, N-(4-(1-(cyclopropanecarbonyl)indolin-5-yl)-5-methylthiazol-2-yl)-2-(3-((5-((2-(2,6-dioxopiperidin-3-yl)-1-oxoisoindolin-4-yl)amino)pentyl)oxy)phenyl)acetamide]
–	0.23	> 3000	–	Cc1sc(NC(=O)Cc2cccc(OCCCCCCCCNc3cccc4c3C(=O)N(C3CCC(=O)NC3=O)C4=O)c2)nc1-c1ccc2c(c1)CCN2C(=O)C1CC1 (centres unmarked) [Cpd. No. 72, N-(4-(1-(cyclopropanecarbonyl)indolin-5-yl)-5-methylthiazol-2-yl)-2-(3-((8-((2-(2,6-dioxopiperidin-3-yl)-1,3-dioxoisoindolin-4-yl)amino)octyl)oxy)phenyl)acetamide]
–	0.011	< 300	> 3000	Cc1ncccc1C(=O)N1CCc2cc(-c3nc(NC(=O)Cc4cccc(OCCOCCNc5cccc6c5C(=O)N(C5CCC(=O)NC5=O)C6=O)c4)sc3C)ccc21 (centres unmarked) [Cpd. No. 76, 2-(3-(2-(2-((2-(2,6-dioxopiperidin-3-yl)-1,3-dioxoisoindolin-4-yl)amino)ethoxy)ethoxy)phenyl)-N-(5-methyl-4-(1-(2-methylnicotinoyl)indolin-5-yl)thiazol-2-yl)acetamide]
–	0.0077	< 300	> 3000	Cc1cnccc1C(=O)N1CCc2cc(-c3nc(NC(=O)Cc4cccc(OCCOCCNc5cccc6c5C(=O)N(C5CCC(=O)NC5=O)C6=O)c4)sc3C)ccc21 (centres unmarked) [Cpd. No. 77, 2-(3-(2-(2-((2-(2,6-dioxopiperidin-3-yl)-1,3-dioxoisoindolin-4-yl)amino)ethoxy)ethoxy)phenyl)-N-(5-methyl-4-(1-(3-methylisonicotinoyl)indolin-5-yl)thiazol-2-yl)acetamide]
–	0.0059	< 300	> 3000	Cc1ccncc1C(=O)N1CCc2cc(-c3nc(NC(=O)Cc4cccc(OCCOCCNc5cccc6c5C(=O)N(C5CCC(=O)NC5=O)C6=O)c4)sc3C)ccc21 (centres unmarked) [Cpd. No. 78, 2-(3-(2-(2-((2-(2,6-dioxopiperidin-3-yl)-1,3-dioxoisoindolin-4-yl)amino)ethoxy)ethoxy)phenyl)-N-(5-methyl-4-(1-(4-methylnicotinoyl)indolin-5-yl)thiazol-2-yl)acetamide]
–	0.043	< 300	> 3000	Cc1cccnc1C(=O)N1CCc2cc(-c3nc(NC(=O)Cc4cccc(OCCOCCNc5cccc6c5C(=O)N(C5CCC(=O)NC5=O)C6=O)c4)sc3C)ccc21 (centres unmarked) [Cpd. No. 79, 2-(3-(2-(2-((2-(2,6-dioxopiperidin-3-yl)-1,3-dioxoisoindolin-4-yl)amino)ethoxy)ethoxy)phenyl)-N-(5-methyl-4-(1-(3-methylpicolinoyl)indolin-5-yl)thiazol-2-yl)acetamide]
–	0.075	–	> 3000	COc1ccncc1C(=O)N1CCc2cc(-c3nc(NC(=O)Cc4cccc(OCCOCCNc5cccc6c5C(=O)N(C5CCC(=O)NC5=O)C6=O)c4)sc3C)ccc21 (centres unmarked) [Cpd. No. 80, 2-(3-(2-(2-((2-(2,6-dioxopiperidin-3-yl)-1,3-dioxoisoindolin-4-yl)amino)ethoxy)ethoxy)phenyl)-N-(4-(1-(4-methoxynicotinoyl)indolin-5-yl)-5-methylthiazol-2-yl)acetamide]
